Results: US6914045B2, “Glycopeptide antibiotics” (Wyeth Holdings Corporation, priority 2001, dated 2005)

What was measured:
Test in all cases: in vitro antibacterial evaluation, MIC by broth dilution
Format in all cases: cell-based
[1] = system: Staphylococcus sp.; conditions: broth dilution, 18 hours at 35° C.
Outline: (§1)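 Test organisms, which included recent clinical isolates resistant to methicillin, penicillin and/or vancomycin, were inoculated at 5×10^5 CFU/mL into Muller-Hinton II […] containing antibiotic at 64-0.06 μg/mL. Minimum inhibitory concentrations were then read as the lowest level inhibiting growth.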

[2] = system: Enterococcus sp.; conditions: broth dilution, 18 hours at 35° C.
Outline: as §1

[3] = system: Streptococcus sp.; conditions: broth dilution, 18 hours at 35° C.
Outline: as §1

[4] = system: Escherichia coli; conditions: 18 hours at 35° C.
Outline: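 Following National Committee for Clinical Laboratory Standards recommendations (M7-A2), susceptibility was measured by dilution in Muller-Hinton II […]. Bacteria were seeded at 5×10^5 CFU/mL against compound concentrations from 64 down to 0.06 μg/mL.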

CC=C(C)C(=O)OC1C(CO)OC(OC2C(CO)OC(Oc3ccc(CC4NC(=O)C(C(C)c5ccccc5)NC(=O)CNC(=O)C(CO)NC(=O)C(C(O)C5CNC(=N)N5C5OC(CO)C(O)C(O)C5O)NC(=O)C(C(O)C5CNC(=N)N5)NC4=O)cc3)C(O)C2O)C(O)C1O (stereo not drawn) [Example 278b, Cyclo[glycyl-β-methylphenylalanyl-O-[4-O-[4-O-(2-methylbut-2-enoyl)hexopyranosyl]-hexopyranosyl]tyrosyl-3-(2-iminoimidazolidin-4-yl)seryl-3-(3-hexopyranosyl-2-imino-imidazolidin-4-yl)serylseryl]]
32 µg/mL: MIC Enterococcus avium (GC 4558) ([2]; Enterococcus avium (GC 4558)) | MIC Enterococcus faecalis (ATCC 29212) ([2]; Enterococcus faecalis (ATCC 29212)) | MIC Enterococcus faecalis (GC 4553) ([2]; Enterococcus faecalis (GC 4553)) | MIC Enterococcus faecalis (GC 4554) ([2]; Enterococcus faecalis (GC 4554)) | MIC Enterococcus faecalis (GC 6189) ([2]; Enterococcus faecalis (GC 6189)) | MIC Enterococcus faecium (GC 2243) ([2]; Enterococcus faecium (GC 2243)) | MIC Enterococcus faecium (GC 4556) ([2]; Enterococcus faecium (GC 4556)) | MIC Enterococcus faecalis (ATCC 29212) ([2]; strain ATCC 29212) | MIC Enterococcus faecalis (GC 2242) ([2]; strain GC 2242) | MIC Enterococcus faecium (GC 2243) ([2]; strain GC 2243) | MIC Enterococcus faecalis (GC 2691) ([2]; strain GC 2691) | MIC Enterococcus faecalis (GC 4552) ([2]; strain GC 4552) | MIC Enterococcus faecalis (GC 4553) ([2]; strain GC 4553) | MIC Enterococcus faecalis (GC 4554) ([2]; strain GC 4554) | MIC Enterococcus faecium (GC 4556) ([2]; strain GC 4556) | MIC Enterococcus avium (GC 4558) ([2]; strain GC 4558) | MIC Enterococcus faecalis (GC 6189) ([2]; strain GC 6189)
64 µg/mL: MIC Enterococcus faecalis (GC 3059) ([2]; strain GC 3059)
4 µg/mL: MIC Coagulase Negative Staphylococcus (GC 4547) [1] | MIC Coagulase Negative Staphylococcus (GC 4548) [1] | MIC Staphylococcus aureus (GC 3051) [1] | MIC Staphylococcus aureus (GC 4545) [1] | MIC Staphylococcus haemolyticus (GC 4546) [1] | MIC Staphylococcus aureus (GC 3051) ([1]; strain GC 3051) | MIC Staphylococcus aureus (GC 4545) ([1]; strain GC 4545) | MIC Staphylococcus haemolyticus (GC 4546) ([1]; strain GC 4546) | MIC Coagulase Negative Staphylococcus (GC 4547) ([1]; strain GC 4547) | MIC Coagulase Negative Staphylococcus (GC 4548) ([1]; strain GC 4548) | MIC Streptococcus agalactiae (GC 4564) ([3]; strain GC 4564) | MIC Escherichia coli (GC 4560) ([4]; Escherichia coli (GC 4560))
>64 µg/mL: MIC Escherichia coli (ATCC 25922) ([4]; Escherichia coli (ATCC 25922)) | MIC Escherichia coli (GC 4559) ([4]; Escherichia coli (GC 4559))
1 µg/mL: MIC Streptococcus pneumoniae (ATCC 6301) ([3]; strain ATCC 6301) | MIC Streptococcus pneumoniae (GC 1894) ([3]; strain GC 1894)
2 µg/mL: MIC Coagulase Negative Staphylococcus (GC 4549) [1] | MIC Coagulase Negative Staphylococcus (GC 6257) [1] | MIC Coagulase Negative Staphylococcus (GC 4549) ([1]; strain GC 4549) | MIC Coagulase Negative Staphylococcus (GC 6257) ([1]; strain GC 6257) | MIC Streptococcus pyogenes (GC 4563) ([3]; strain GC 4563) | MIC Streptococcus pneumoniae (GC 4565) ([3]; strain GC 4565)
8 µg/mL: MIC Coagulase Negative Staphylococcus (GC 4551) [1] | MIC Staphylococcus aureus (ATCC 29213) [1] | MIC Staphylococcus aureus (GC 1131) [1] | MIC Staphylococcus aureus (GC 3053) [1] | MIC Staphylococcus aureus (GC 4541) [1] | MIC Staphylococcus aureus (GC 4542) [1] | MIC Staphylococcus aureus (GC 4544) [1] | MIC Staphylococcus aureus-SMITH (GC 4543) [1] | MIC Staphylococcus aureus (ATCC 29213) ([1]; strain ATCC 29213) | MIC Staphylococcus aureus (GC 1131) ([1]; strain GC 1131) | MIC Staphylococcus aureus (GC 3053) ([1]; strain GC 3053) | MIC Staphylococcus aureus (GC 4541) ([1]; strain GC 4541) | MIC Staphylococcus aureus (GC 4542) ([1]; strain GC 4542) | MIC Staphylococcus aureus (GC 4544) ([1]; strain GC 4544) | MIC Coagulase Negative Staphylococcus (GC 4551) ([1]; strain GC 4551) | MIC Staphylococcus aureus-SMITH (GC 4543) ([1]; strain SMITH GC 4543) | MIC Enterococcus faecium (GC 4557) ([2]; Enterococcus faecium (GC 4557)) | MIC Enterococcus faecium (GC 4557) ([2]; strain GC 4557)
